From patent publication US20080306019A1, “Dopamine Receptor Agonists in the Treatment and Prevention of Hiv-Induced Dementia” (priority 2005, published 2008)

What was measured:
human fetal neurons = system: human fetal neurons
Procedure: Culture of Human Brain Cells: Neuronal cultures were prepared as described previously (Magnuson D S, et al. Ann Neurol 1995, 37: 373-380; Nath A, et al. J Virol 1996, 70: 1475-1480; New D, et al. J Neurovirol 1997, 3: 168-173). Human fetal brain specimens of gestational age 12-14 weeks were obtained with the consent of women opting for elective termination of pregnancy. Protocols were carried out with strict adherence to the guidelines of the National Institutes of Health (NIH) and with approval from the University of Kentucky Institutional Review Board. Briefly, after mechanical dissociation, the cells were suspended in Opti-MEM with 5% heat-inactivated fetal bovine serum, 0.2% N2 supplement and 1% antibiotic solution (penicillin G sodium 104 units/ml, streptomycin sulfate 10 μg/ml and amphotericin-B 25 μg/ml) (GIBCO). The cells were maintained in culture flasks at 37° C. in a humidified atmosphere of 5% CO2 and 95% air for at least a month. At least 3 days before the experiment was performed the cells were plated in flat bottom 96 well plates coated with poly-d-lysine. Sample cultures were stained for the neuron-specific enolase, microtubule-associated protein-2, synaptophysin, and glial fibrillary astrocytic protein (GFAP). […] Sample cultures were further characterized for the presence of ER-α and ER-β and dopaminergic neurons.
Neurotoxicity Assay: At the time of the experimental treatment, the culture media was replaced with Locke's buffer containing (in mM) 154 NaCl, 5.6 KCl, 2.3 CaCl2, 1 MgCl2, 3.6 NaHCO3, 5 glucose, 5 N-2-hydroxyethylpiperazine-N′2-ethanesulfonic acid (HEPES) and 1% antibiotic solution (penicillin G sodium 104 units/ml, streptomycin sulfate 10 μg/ml and amphotericin-B 25 μg/ml) (pH 7.2). […] To replicate the stereoisomer specific neuroprotective properties of estrogen, the cultures were treated with either […] (10 nM), or 17α-E2 (10 nM) immediately preceding addition of the HIV proteins plus cocaine. To investigate the neuroprotective properties of other gonadal steroids, the cells were treated with various concentrations of PROG or T, immediately followed by exposure to the HIV proteins plus cocaine. […] Various concentrations of cholesterol were used as treatment prior to incubation with the HIV proteins plus cocaine to further characterize the nature of gonadal steroid neuroprotection. ICI-182,780, DMSO (10 nM), β-cyclodextrin (100 nM) and ethanol (10 nM) were also tested for neurotoxic/protective effects. ICI-182,780 and 17α-E2 were solvated in DMSO. […], T, PROG and cholesterol were β-cyclodextrin encapsulated to provide water solubility. Ethanol was used to solvate DHT. Tat1-72 was produced as indicated above, whereas gp120 was a gift from Chiron Corporation. The ICI-182,780 compound was obtained from Tocris Cookson, Inc. (Ellisville, Mo.). All other chemical agents were supplied by Sigma Chemicals (St. Louis, Mo.). At the end of the incubation period neuronal death was assessed by trypan blue (Sigma) exclusion assay as described previously (Vongher J and Frye C. Pharmacol Biochem Behav 1999, 64: 777-785; Magnuson D S, et al. Ann Neurol 1995, 37: 373-380; Nath A, et al. J Virol 1996, 70: 1475-1480).

[1] = system: adult female Sprague-Dawley rats (ovariectomized); assay: Locomotor activity after intra-accumbal Tat and IV cocaine (Example 4); assay type: in vivo, rat; settings: IV cocaine 3.0 mg/kg, saline intra-accumbal
Procedure: Animals. […] Ovariectomy was also performed on all rats during the same surgical procedure.
Intra-accumbal TAT injection. A 2 treatment×2 drug, design was used. Thus, rats received bilateral injections of TAT or vehicle into the nucleus accumbens core and were subsequently administered an IV injection of cocaine (3.0 mg/kg/injection) or saline. Rats were administered intra-accumbal TAT or VEH injections according to methods previously described (Bansal et al., 2000). Briefly, 15 μg of Tat were injected bilaterally, using a Hamilton Syringe coated with Sigmacote, at the following coordinates: 1.8 mm anterior, ±1.6 mm lateral, and 7.0 mm ventral from bregma on the skull surface.
Locomotor activity. The activity monitors were 16-cm diameter, round open-field chambers (Flex-Field, San Diego Instruments, San Diego, Calif.) that detected free movement of animals by infrared photocell interruptions. This equipment used an infrared photocell grid (32 emitter/detector pairs) to measure total locomotor activity. […]
Drug Treatment. […] The dose of cocaine hydrochloride (3.0 mg/kg/day; Sigma, St. Louis, Mo.) was calculated on the weight of the salt and dissolved in saline for an injection volume of 1 ml/kg.

rat hippocampal neurons = assay: Protein carbonyl immunoreactivity in rat hippocampal cell cultures; settings: 48-hrs treatment

COC(=O)[C@H]1[C@@H](OC(=O)c2ccccc2)C[C@@H]2CC[C@H]1N2C.Cl [cocaine, Cocaine hydrochloride]
toxicity of HIV proteins combined with cocaine (human fetal neurons; Tat 40 nM + gp120 32.5 pM + cocaine 1.6 μM): synergistic neurotoxicity
toxicity alone vs Locke's buffer (human fetal neurons; substance alone, 15 hours): Neither the HIV proteins, Tat plus gp120, nor cocaine alone were more toxic than the Locke's buffer control
centrally directed activity, cocaine [1]: cocaine-induced increase in centrally directed activity
levels of protein oxidation, Tat + cocaine vs Tat alone (rat hippocampal neurons): higher than in cultures treated with just Tat alone
